Reference: patent US12577216B2, “Triazine benzoate compound and application thereof” (SHENYANG SINOCHEM AGROCHEMICALS R&D CO., LTD., priority 2020, dated 2026)
Read-outs that look alike come from different tables or passages of the source.

How the values were obtained:
Format in all cases: in vivo
[1] = tested on: zinnia; experiment: Determination of herbicidal activity, post-emergence stem and leaf spray, zinnia; details: for control effects on zinnia: 150 g a.i./hm^2, after emergence, visual 0-100%; for Herbicidal activity for Zinnia, control effect %: Table 3 parallel comparison
Procedure: (§1) Seeds of broadleaf weeds (zinnia and piemarker) or grassy weeds (green bristlegrass and barnyard grass) were respectively sown in a paper cup having a diameter of 7 cm and containing nutrient soil; after sowing, the seeds were covered with 1 cm of soil; the soil was pressed and watered, and then the seeds were cultivated in a greenhouse according to a conventional method; and stems and leaves were sprayed after 2-3 leaf stage of the weeds.
(§2) After the original medicinal acetone was dissolved, the test requires to use 1‰ of Tween 80 to stand in running water to prepare the solution to be tested with a required concentration. According to the design dose of the test, spray treatment was carried out on a track-type crop sprayer (designed and produced by British Engineer Research Ltd.) (spray pressure is 1.95 kg/cm^2, spray volume is 500 L/hm^2 and track speed is 1.48 km/h). The test was repeated for three times. The test material was treated and then placed in an operation hall. The medicinal liquid was naturally dried in the shade, and then was placed in a greenhouse and managed according to the conventional method. The response of the weeds to the drug was observed and recorded. After treatment, the control effects of the test drug on the weeds were visually inspected regularly, expressed by 0-100%. “0” represents no control effect and “100%” represents complete killing.

[2] = tested on: piemarker; experiment: Determination of herbicidal activity, post-emergence stem and leaf spray, piemarker; details: for Herbicidal activity for Piemarker, control effect %: Table 4 parallel comparison; for pest or weed control at 150 g/ha: post-emergence, read-out: control effects on piemarker
Procedure: as §1, §2

[3] = tested on: green bristlegrass; experiment: Determination of herbicidal activity, post-emergence stem and leaf spray, green bristlegrass; details: Table 5 parallel comparison
Procedure: as §1, §2

[4] = tested on: barnyard grass; experiment: Determination of herbicidal activity, post-emergence stem and leaf spray, barnyard grass; details: Table 6 parallel comparison
Procedure: as §1, §2

[5] = 2.34 g a.i./hm^2, after emergence
[6] = 9.375 g a.i./hm^2, after emergence
[7] = 150 g a.i./hm^2, after emergence, visual 0-100%
[8] = 37.5 g a.i./hm^2, after emergence

| SMILES | control effects on zinnia [1] | Herbicidal activity for Zinnia, control effect % [1, 5] | Herbicidal activity for Zinnia, control effect % [1, 6] | control effects on piemarker [2, 7] | Herbicidal activity for Piemarker, control effect % [2, 5] | Herbicidal activity for Piemarker, control effect % [2, 6] | Herbicidal activity for Green Bristlegrass, control effect % [3, 6] | Herbicidal activity for Green Bristlegrass, control effect % [3, 8] | Herbicidal activity for Barnyard Grass, control effect % [4, 6] | Herbicidal activity for Barnyard Grass, control effect % [4, 8] | pest or weed control at 150 g/ha [2, 7] | pest or weed control at 150 g/ha [2] |
| --- | --- | --- | --- | --- | --- | --- | --- | --- | --- | --- | --- | --- |
| Cn1c(=S)n(C)c(=O)n(-c2cc(C(=O)OCC(=O)OCCCCCl)c(Cl)cc2F)c1=O [Compound 225] | 100% | 95% | 100% | 100% | 85% | 100% | 80% | 90% | 95% | 100% |  |  |
| Cn1c(=S)n(C)c(=O)n(-c2cc(C(=O)OCC(=O)OCC3CO3)c(Cl)cc2F)c1=O (stereo not drawn) [Compound 245] | 100% | 95% | 100% | 100% |  |  | 70% | 90% | 95% | 98% |  |  |
| Cn1c(=S)n(C)c(=O)n(-c2cc(C(=O)OCC(=O)OCCCCl)c(Cl)cc2F)c1=O [Compound 222, 2-chloro-4-fluoro-5-(3,5-dimethyl-2,6-dioxo-4-thio-1,3,5-triazine-1-yl)benzoic acid (3-chloropropoxycarbonyl) methyl ester] | 100% | 100% | 100% |  |  |  | 60% | 90% |  |  | 100% |  |
| CC#CCOC(=O)C(C)OC(=O)c1cc(-n2c(=O)n(C)c(=S)n(C)c2=O)c(F)cc1Cl (stereo not drawn) [Compound 287] | 100% | 80% | 100% | 100% |  |  | 50% | 70% |  |  |  |  |
| CC(OC(=O)c1cc(-n2c(=O)n(C)c(=S)n(C)c2=O)c(F)cc1Cl)C(=O)OC/C=C/Cl (stereo not drawn) [Compound 281, (E)-2-chloro-4-fluoro-5-(3,5-dimethyl-2,6-dioxo-4-thio-1,3,5-triazine-1-yl)benzoic acid (1-(3-chloroallyloxycarbonyl))ethyl ester] | 100% | 90% | 100% |  |  |  | 60% | 90% |  |  |  | 100% |
| C=CCOC(=O)[C@@H](C)Oc1cc(-n2c(=O)n(C)c(=S)n(C)c2=O)c(F)cc1Cl [KC2, reference compound] |  |  |  |  |  |  | 20% | 50% | 75% | 90% |  |  |
| CC(OC(=O)c1cc(-n2c(=O)n(C)c(=S)n(C)c2=O)c(F)cc1Cl)C(=O)OCC1CC1 (stereo not drawn) [Compound 291] | 100% | 85% | 100% | 100% | 85% | 100% |  |  | 90% | 100% |  |  |
